Reference: patent US4720495A, “Benzo[ij]quinolizine-2-carboxylic acids useful for treating bacterial infection” (priority 1985, dated 1988)
Converted amounts (≈) assume the structure as drawn.

Legend:
[1] = system: Pseudomonas aeruginosa NCTC 10490; test: minimal inhibitory concentration, in vitro antibacterial activity; format: cell-based; conditions: NCTC10490, 37° C., 20 hours
Description: (§1) The in vitro antibacterial activities of typical examples of the present compounds [I] were evaluated in terms of the minimal inhibitory concentration defined as the lowest concentration of the compound preventing the bacterial growth. The Gram-positive bacteria used as test microorganisms included Bacillus subtilis, Staphylococcus aureus and Streptococcus faecalis, and the Gram-negative bacteria used as test microorganisms included Escherichia coli, Enterobacter cloacae, Klebsiella pneumoniae, Proteus vulgaris, Pseudomonas aeruginosa, Serratia marcescens and Salmonella enteritidis. The minimal inhibitory concentration (cultured at 37° C. for 20 hours) was determined according to the standard method prescribed by the Japan Society of Chemotherapy (CHEMOTHERAPY, Vol. 29, No. 1, p. 76, 1981). The following compounds were used as typical examples of the present compounds [I]. At the end of the chemical name of each compound, its tentative designation is given in Parentheses.
(§2) For purposes of comparison, the in vitro antibacterial activities of ofloxacin, OPC-7241 and compound α were evaluated according to the same method as described above and the test results thus obtained are also shown in Table 1.

[2] = system: Klebsiella pneumoniae PCI 602; test: as above; format: cell-based; conditions: PCI602, 37° C., 20 hours
Description: as §1, §2

Enterobacter cloacae 963 = test: as above; format: cell-based; conditions: 37° C., 20 hours
Description: as §1, §2

[3] = system: Salmonella enteritidis G14; test: as above; format: cell-based; conditions: Salmonella enterica, 37° C., 20 hours
Description: as §1, §2

[4] = system: Escherichia coli NIHJ JC-2; test: as above; format: cell-based; conditions: NIHJJC2, 37° C., 20 hours
Description: as §1, §2

[5] = system: Proteus vulgaris ATCC 13315; test: as above; format: cell-based; conditions: ATCC13315, 37° C., 20 hours
Description: as §1, §2

Escherichia coli CI-304 = test: as above; format: cell-based; conditions: CI304, 37° C., 20 hours
Description: as §1, §2

[6] = system: Bacillus subtilis ATCC 6633; test: as above; format: cell-based; conditions: ATCC6633, 37° C., 20 hours
Description: as §1, §2

[7] = system: Serratia marcescens IAM 1184; test: as above; format: cell-based; conditions: IAM1184, 37° C., 20 hours
Description: as §1, §2

[8] = system: Streptococcus faecalis AHU 1085; test: as above; format: cell-based; conditions: Enterococcus faecalis, AHU1085, 37° C., 20 hours
Description: as §1, §2

[9] = system: Staphylococcus aureus FDA 209P JC-1; test: as above; format: cell-based; conditions: FDA209P, 37° C., 20 hours
Description: as §1, §2

[10] = enteral absorbability, serum concentration after oral administration to mice; format: in vivo; conditions: mouse, 50 mg/kg orally, fasted male ICR mice; for concentration at 0.5 h: 30 min.
Description: Using male ICR mice fasted overnight (weighing 20±1 g), the enteral absorbability of some typical examples of the present compounds [I] was tested. This test was carried out by administering 50 mg/kg of each test compound orally to mice and determining its serum concentration 30 minutes, 1 hour, 2 hours and 4 hours after administration. Five mice were used for each test point. At each test point, whole blood was collected from the mice by cardiac puncture and used to prepare serum samples. Concentrations of the test compounds in serum samples were determined by the paper disc method using Escherichia coli CI-304 as the test microorganism.
For purposes of comparison, the enteral absorbability of ofloxacin and OPC-7241 was tested in the same manner as described above and the results thus obtained are also shown in Table 2.

SMILES	MIC [1]	MIC [2]	MIC (Enterobacter cloacae 963)	MIC [3]	MIC [4]	MIC [5]	MIC (Escherichia coli CI-304)	MIC [6]	MIC [7]	MIC [8]	MIC [9]	concentration at 0.5 h [10]	concentration at 1 h [10]	concentration at 2 h [10]	concentration at 4 h [10]
CC1C=Cc2c(N3CCNC(C)(C)C3)c(F)cc3c(=O)c(C(=O)O)cn1c23 (stereo not shown) [Compound 26, 9-Fluoro-5-methyl-8-(3,3-dimethyl-1-piperazinyl) -1-oxo-1H, 5H-benzo[ij]quinolizine-2-carboxylic acid]	1.56 µg/mL (≈ 4.2 µM)	0.2 µg/mL (≈ 0.538 µM)	0.39 µg/mL (≈ 1.05 µM)	1.56 µg/mL (≈ 4.2 µM)	0.39 µg/mL (≈ 1.05 µM)	0.1 µg/mL (≈ 0.269 µM)	0.2 µg/mL (≈ 0.538 µM)								
CC1C=Cc2c(N3CCN(C)CC3)c(F)cc3c(=O)c(C(=O)O)cn1c23.Cl (stereo not shown) [Compound 37, 9-Fluoro-5-methyl-8-(4-methyl-1-piperazinyl) -1-oxo-1H, 5H-benzo[ij]quinolizine-2-carboxylic acid hydrochloride]	0.78 µg/mL	0.1 µg/mL	0.78 µg/mL	0.78 µg/mL	0.39 µg/mL	0.1 µg/mL	0.2 µg/mL	0.1 µg/mL	1.56 µg/mL	1.56 µg/mL	0.39 µg/mL				
CCCN1CCN(c2c(F)cc3c(=O)c(C(=O)O)cn4c3c2C(=O)CC4C)CC1 (stereo not shown) [Compound 8, 9-Fluoro-5-methyl-8-(4-n-propyl-1-piperazinyl)-6,7-dihydro-1,7-dioxo-1H, 5H-benzo[ij]quinolizine-2-carboxylic acid]	1.56 µg/mL (≈ 3.89 µM)	0.1 µg/mL (≈ 0.249 µM)	0.78 µg/mL (≈ 1.94 µM)		0.39 µg/mL (≈ 0.972 µM)		0.2 µg/mL (≈ 0.498 µM)	0.39 µg/mL (≈ 0.972 µM)		3.13 µg/mL (≈ 7.8 µM)	0.78 µg/mL (≈ 1.94 µM)				
CC1CN(c2c(F)cc3c(=O)c(C(=O)O)cn4c3c2C=CC4C)CCN1C (stereo not shown) [Compound 25, 9-Fluoro-5-methyl-8-(3,4-dimethyl-1-piperazinyl) -1-oxo-1H, 5H-benzo[ij]quinolizine-2-carboxylic acid]	1.56 µg/mL (≈ 4.2 µM)	0.1 µg/mL (≈ 0.269 µM)	0.2 µg/mL (≈ 0.538 µM)	1.56 µg/mL (≈ 4.2 µM)	0.39 µg/mL (≈ 1.05 µM)	0.1 µg/mL (≈ 0.269 µM)	0.2 µg/mL (≈ 0.538 µM)	0.2 µg/mL (≈ 0.538 µM)	1.56 µg/mL (≈ 4.2 µM)		0.2 µg/mL (≈ 0.538 µM)	15500 ng/mL	14900 ng/mL	9300 ng/mL	5400 ng/mL
CC1CC(=O)c2c(N3CCN(CCO)CC3)c(F)cc3c(=O)c(C(=O)O)cn1c23 (stereo not shown) [Compound 12, 9-Fluoro-5-methyl-8-[4-(2-hydroxyethyl) -1-piperazinyl]-6,7-dihydro-1,7-dioxo-1H, 5H-benzo[ij]quinolizine-2-carboxylic acid]		0.1 µg/mL (≈ 0.248 µM)					0.39 µg/mL (≈ 0.967 µM)								
CC1C=Cc2c(N3CCN(C)CC3)c(Cl)cc3c(=O)c(C(=O)O)cn1c23 (stereo not shown) [Compound 24, 9-Chloro-5-methyl-8-(4-methyl-1-piperazinyl)-1-oxo-1H,5H-benzo[ij]quinolizine-2-carboxylic acid]	1.56 µg/mL (≈ 4.17 µM)	0.1 µg/mL (≈ 0.267 µM)	0.2 µg/mL (≈ 0.535 µM)	1.56 µg/mL (≈ 4.17 µM)	0.39 µg/mL (≈ 1.04 µM)	0.1 µg/mL (≈ 0.267 µM)	0.2 µg/mL (≈ 0.535 µM)	0.2 µg/mL (≈ 0.535 µM)	1.56 µg/mL (≈ 4.17 µM)	0.78 µg/mL (≈ 2.09 µM)	0.2 µg/mL (≈ 0.535 µM)				
CC1CC(=O)c2c(N3CCNC(C)(C)C3)c(F)cc3c(=O)c(C(=O)O)cn1c23 (stereo not shown) [Compound 15, 9-Fluoro-5-methyl-8-(3,3-dimethyl-1-piperazinyl) -6,7-dihydro-1,7-dioxo-1H, 5H-benzo[ij]quinolizine-2-carboxylic acid]	3.13 µg/mL (≈ 8.08 µM)	0.1 µg/mL (≈ 0.258 µM)	0.39 µg/mL (≈ 1.01 µM)	0.78 µg/mL (≈ 2.01 µM)	0.39 µg/mL (≈ 1.01 µM)		0.1 µg/mL (≈ 0.258 µM)	0.39 µg/mL (≈ 1.01 µM)		3.13 µg/mL (≈ 8.08 µM)	0.39 µg/mL (≈ 1.01 µM)	15000 ng/mL	11700 ng/mL	6700 ng/mL	4300 ng/mL
CCC1CC(=O)c2c(N3CCN(C)CC3)c(F)cc3c(=O)c(C(=O)O)cn1c23 (stereo not shown) [Compound 6, 9-Fluoro-5-ethyl-8-(4-methyl-1-piperazinyl) -6,7-dihydro-1,7-dioxo-1H, 5H-benzo[ij]quinolizine-2-carboxylic acid]		0.2 µg/mL (≈ 0.516 µM)	0.78 µg/mL (≈ 2.01 µM)		0.78 µg/mL (≈ 2.01 µM)		0.39 µg/mL (≈ 1.01 µM)	0.39 µg/mL (≈ 1.01 µM)							
CC1CN(c2c(Cl)cc3c(=O)c(C(=O)O)cn4c3c2C(=O)CC4C)CC(C)N1C (stereo not shown) [Compound 18, 9-Chloro-5-methyl-8-(3,4,5-trimethyl-1-piperazinyl) -6,7-dihydro-1,7-dioxo-1H, 5H-benzo[ij]quinolizine-2-carboxylic acid]		0.1 µg/mL (≈ 0.239 µM)	0.78 µg/mL (≈ 1.87 µM)		0.78 µg/mL (≈ 1.87 µM)		0.2 µg/mL (≈ 0.479 µM)								
CCC1C=Cc2c(N3CCNC(C)C3)c(F)cc3c(=O)c(C(=O)O)cn1c23 (stereo not shown) [Compound 32, 9-Fluoro-5-ethyl-8-(3-methyl-1-piperazinyl) -1-oxo-1H, 5H-benzo[ij]quinolizine-2-carboxylic acid]		0.2 µg/mL (≈ 0.538 µM)	0.78 µg/mL (≈ 2.1 µM)		0.39 µg/mL (≈ 1.05 µM)		0.2 µg/mL (≈ 0.538 µM)								
CC1CC(=O)c2c(N3CCNCC3)c(Cl)cc3c(=O)c(C(=O)O)cn1c23 (stereo not shown) [Compound 2, 9-Chloro-5-methyl-8-(1-piperazinyl)-6,7-dihydro-1,7-dioxo-1H,5H-benzo[ij]quinolizine-2-carboxylic acid]	0.78 µg/mL (≈ 2.08 µM)	0.1 µg/mL (≈ 0.266 µM)	0.78 µg/mL (≈ 2.08 µM)		0.39 µg/mL (≈ 1.04 µM)	0.1 µg/mL (≈ 0.266 µM)	0.2 µg/mL (≈ 0.532 µM)	0.39 µg/mL (≈ 1.04 µM)			0.39 µg/mL (≈ 1.04 µM)				
CC1C=Cc2c(N3CCNCC3)c(F)cc3c(=O)c(C(=O)O)cn1c23 (stereo not shown) [Compound 20, 9-Fluoro-5-methyl-8-(1-piperazinyl) -1-oxo-1H, 5H-benzo[ij]quinolizine-2-carboxylic acid]	3.13 µg/mL (≈ 9.12 µM)	0.2 µg/mL (≈ 0.582 µM)	0.78 µg/mL (≈ 2.27 µM)	0.78 µg/mL (≈ 2.27 µM)	0.39 µg/mL (≈ 1.14 µM)	0.2 µg/mL (≈ 0.582 µM)	0.2 µg/mL (≈ 0.582 µM)		3.13 µg/mL (≈ 9.12 µM)		0.78 µg/mL (≈ 2.27 µM)				
CC1CN(c2c(F)cc3c(=O)c(C(=O)O)cn4c3c2C=CC4C)CC(C)N1C (stereo not shown) [Compound 27, 9-Fluoro-5-methyl-8-(3,4,5-trimethyl-1-piperazinyl) -1-oxo-1H, 5H-benzo[ij]quinolizine-2-carboxylic acid]		0.2 µg/mL (≈ 0.519 µM)	0.39 µg/mL (≈ 1.01 µM)	0.78 µg/mL (≈ 2.02 µM)		0.1 µg/mL (≈ 0.259 µM)	0.2 µg/mL (≈ 0.519 µM)		1.56 µg/mL (≈ 4.05 µM)		0.78 µg/mL (≈ 2.02 µM)				
